This is an account of results in paper PMC4048129 (Chemistry and physics of lipids, 2013).

One data set relates to S. aureus (ATCC 29213). Description: Microdilution susceptibility testing. As to conditions: for IC50: ATCC29213, read-out: IC50 ± SEM. Background: Broth dilution looks for growth in wells or tubes with falling amounts of substance.
The test system of data set [1] is S. saprophyticus (ATCC 15305). The experiment in a line: Microdilution susceptibility testing. Conditions: for IC50: ATCC15305, read-out: IC50 ± SEM.
The subject of a further data set is E. coli (ATCC 25922). The experiment in a line: Microdilution susceptibility testing.
Data set [2] concerns P. aeruginosa (ATCC 27853). The experiment in a line: Microdilution susceptibility testing.
Data set [3] relates to CIMRSA 1. The experiment in a line: Determination of bactericidal concentration. As to conditions: CIMRSA 1 and 2 (both strains, text summary). The class given is cell-based, Clinical isolate of methicillin-resistant S. aureus.
For a further data set, the system named is CIMRSA 2. Description: Microdilution susceptibility testing. Conditions: for IC50: read-out: IC50 ± SEM.
Data set [4] concerns CIMRSA 1. Description: Microdilution susceptibility testing. Conditions: for IC50: read-out: IC50 ± SEM.
A short description of data set [5]: Cytotoxicity testing, MTT assay. Conditions: human, peripheral blood mononuclear cells (PBMC). Format: cell-based. On the technique in general: Tetrazolium assays rely on reduction of a dye to a coloured formazan, in cell work by metabolically active cells.
Data set [6] has as its system Leishmania donovani amastigotes. As to conditions: L. donovani; ref Carballeira et al., 2012; cited from earlier work.
Data set [7] deals with K. pneumoniae (ATCC 13883). Description: Microdilution susceptibility testing. As to conditions: for IC50: ATCC13883, read-out: IC50 ± SEM.
The target in data set [8] is L. donovani DNA topoisomerase IB enzyme (LdTopIB). As to conditions: ref Carballeira et al., 2012; cited from earlier work.
The subject of a further data set is MRSA ATCC 43300. The experiment in a line: Microdilution susceptibility testing. Conditions: for IC50: read-out: IC50 ± SEM.
For the next data set, the system named is B. cereus (ATCC 10876). The experiment in a line: Microdilution susceptibility testing. As to conditions: for IC50: ATCC10876, read-out: IC50 ± SEM.
Data set [9] concerns Peripheral blood mononuclear cells (PBMC). Description: Cytotoxicity testing, MTT assay. The class given is cell-based.
Data set [10] deals with Mycobacterium tuberculosis. As to conditions: ref Carballeira et al., 2006; cited from earlier work.
Data set [11] concerns Gram-positive and Gram-negative bacteria. Description: Antibacterial activity against the bacteria of Table 1. Conditions: all bacteria presented in Table 1, result in words.
Where [12] appears, read: Staphylococcus aureus, ATCC29213.
The mark [13] stands for this setting: Staphylococcus saprophyticus, ATCC15305, S. saprophyticus ATCC 15305, 37°C, 18-24 h.
The mark [14] stands for this setting: Pseudomonas aeruginosa, ATCC27853.
Where [15] appears, read: Klebsiella pneumoniae, ATCC13883.
Where [16] appears, read: Staphylococcus aureus, ATCC43300|MRSA.
Setting [17] is: S. aureus ATCC 29213, 37°C, 18-24 h.
Setting [18] is: S. saprophyticus ATCC 15305, 37°C, 18-24 h.
[19] abbreviates: E. coli ATCC 25922, 37°C, 18-24 h.
Setting [20] is: P. aeruginosa ATCC 27853, 37°C, 18-24 h.
[21] abbreviates: K. pneumoniae ATCC 13883, 37°C, 18-24 h.
[22] abbreviates: B. cereus ATCC 10876, 37°C, 18-24 h.

≈ marks a conversion by molar mass, not a printed value.

The MIC is the smallest concentration in the dilution series that meets the test's criterion for growth inhibition. As a reminder, the IC50 is the concentration that gives 50% inhibition.

With `CCCCCCCCCCCCCCCC#CC(=O)O` [Compound 2-ODA, 2-Octadecynoic acid], the MIC with S. aureus (ATCC 29213) (setting [12]) is 15.6 µg/mL (≈ 55.6 µM); in data set [1] (setting [13]), 125 µg/mL (≈ 446 µM); against E. coli (ATCC 25922) (Escherichia coli, ATCC25922) it was over 1000 µg/mL; in [2] (setting [14]), over 1000 µg/mL; against CIMRSA 2 (Staphylococcus aureus) it was 7.8 µg/mL (≈ 27.8 µM); in the data set on CIMRSA 1 [4] (Staphylococcus aureus) it was 7.8 µg/mL (≈ 27.8 µM). Moreover, the MIC was found to be 7.8 µg/mL (≈ 27.8 µM) in data set [7] (setting [15]); 7.8 µg/mL (≈ 27.8 µM) against MRSA ATCC 43300 (setting [16]); 15.6 µg/mL (≈ 55.6 µM) against B. cereus (ATCC 10876) (Bacillus cereus, ATCC10876). Further, the IC50 is 8.1 µg/mL (≈ 28.9 µM) in the data set on S. aureus (ATCC 29213) (Staphylococcus aureus); 68.8 µg/mL (≈ 245 µM) in data set [1] (Staphylococcus saprophyticus); 5.5 µg/mL (≈ 19.6 µM) in the data set on CIMRSA 2 (Staphylococcus aureus); 4.3 µg/mL (≈ 15.3 µM) in the data set on CIMRSA 1 [4] (Staphylococcus aureus); 11 µM in data set [6]; 5.6 µg/mL (≈ 20 µM) in data set [7] (Klebsiella pneumoniae). Further, the IC50 in [8] was 5.3 µM; with MRSA ATCC 43300 (setting [16]), 5.5 µg/mL (≈ 19.6 µM); in the data set with B. cereus (ATCC 10876) (Bacillus cereus), 11.9 µg/mL (≈ 42.4 µM). Moreover, in the data set on CIMRSA 1 [3], the bactericidal concentration was determined as 15.6 µg/mL. Further, the IC50 at 3 days in [5] was 58.9 ± 0.1 µg/mL (≈ 210 µM).

With `CCCCCCC#CCCCCCC#CC(=O)O` [2,9-HDA], the “IC50 ± SEM” value in the data set on S. aureus (ATCC 29213) (setting [17]) came out at 94.0 ± 0.9 µg/mL (≈ 378 µM); in [1] (setting [18]) it was 61.5 ± 1.2 µg/mL (≈ 248 µM); in the data set on CIMRSA 2 (CIMRSA 2), 76.0 ± 2.4 µg/mL (≈ 306 µM); in the data set on CIMRSA 1 [4] (CIMRSA 1), 102.1 ± 2.4 µg/mL (≈ 411 µM); in data set [7] (setting [21]), 135.4 ± 0.7 µg/mL (≈ 545 µM); in the data set on MRSA ATCC 43300 (MRSA ATCC 43300) it was 203.5 ± 2.6 µg/mL (≈ 819 µM). In the data set on B. cereus (ATCC 10876) (setting [22]), the “IC50 ± SEM” value is 34.2 ± 0.3 µg/mL (≈ 138 µM). In addition, the MIC against S. aureus (ATCC 29213) (setting [17]) was 250 µg/mL (≈ 1010 µM); in [1] (setting [18]), 125 µg/mL (≈ 503 µM); against E. coli (ATCC 25922) (setting [19]), >1,000 μg/mL; in [2] (setting [20]) it was >1,000 μg/mL; in the data set on CIMRSA 2 (CIMRSA 2), 250 µg/mL (≈ 1010 µM); with CIMRSA 1 [4] (CIMRSA 1) it was 250 µg/mL (≈ 1010 µM). The MIC in data set [7] (setting [21]) is 250 µg/mL (≈ 1010 µM); in the data set on MRSA ATCC 43300 (MRSA ATCC 43300), 500 µg/mL (≈ 2010 µM); with B. cereus (ATCC 10876) (setting [22]) it was 62.5 µg/mL (≈ 252 µM). In the data set on CIMRSA 1 [3], this compound displayed a bactericidal concentration of 125 to 500 µg/mL. Moreover, the “PBMC cytotoxicity, IC50 ± SEM” value in data set [9] is 93.3 ± 0.4 µg/mL.

In the case of `CCCCCCCCCC#CCCC#CC(=O)O` [2,6-HDA, 2,6-hexadecadiynoic acid], the MIC in the data set on S. aureus (ATCC 29213) (setting [12]) is 31.3 µg/mL (≈ 126 µM); in data set [1] (setting [13]), 62.5 µg/mL (≈ 252 µM); in the data set on E. coli (ATCC 25922) (Escherichia coli, ATCC25922) it was over 1000 µg/mL; in data set [2] (setting [14]) it was 250 µg/mL (≈ 1010 µM); with CIMRSA 2 (Staphylococcus aureus) it was 62.5 µg/mL (≈ 252 µM); in the data set on CIMRSA 1 [4] (Staphylococcus aureus), 62.5 µg/mL (≈ 252 µM). Moreover, the MIC in [7] (setting [15]) came to 62.5 µg/mL (≈ 252 µM); with MRSA ATCC 43300 (setting [16]), 62.5 µg/mL (≈ 252 µM); in the data set on B. cereus (ATCC 10876) (Bacillus cereus, ATCC10876), 62.5 µg/mL (≈ 252 µM). The IC50 amounted to 14.1 µg/mL (≈ 56.8 µM) with S. aureus (ATCC 29213) (Staphylococcus aureus); 21.5 µg/mL (≈ 86.6 µM) in data set [1] (Staphylococcus saprophyticus); 132 µg/mL (≈ 533 µM) in data set [2] (Pseudomonas aeruginosa, ATCC27853, read-out: IC50 ± SEM); 22.4 µg/mL (≈ 90.2 µM) in the data set with CIMRSA 2 (Staphylococcus aureus); 39.5 µg/mL (≈ 159 µM) with CIMRSA 1 [4] (Staphylococcus aureus); 31.2 µg/mL (≈ 126 µM) in [7] (Klebsiella pneumoniae). Moreover, the IC50 turned out to be 22.3 µg/mL (≈ 89.8 µM) in the data set on MRSA ATCC 43300 (setting [16]) and 46.1 µg/mL (≈ 186 µM) with B. cereus (ATCC 10876) (Bacillus cereus). The same compound yielded a bactericidal concentration in the data set on CIMRSA 1 [3] of 125 to 500 µg/mL. In data set [5], this compound had an IC50 at 3 days of 63.4 ± 0.3 µg/mL (≈ 255 µM). In addition, the “minimum inhibitory concentrations (MICs)” value in data set [10] is 141 to 145 µM.

Consider `CCCCCCCCCCCCCCCC#CCOC1CCCCO1` (stereo not drawn) [Compound 2-ODOTHP, 2-(2-Octadecynyloxy)-tetrahydro-2H-pyran], for which the MIC against S. aureus (ATCC 29213) (setting [12]) was over 1000 µg/mL; in [1] (setting [13]), over 1000 µg/mL; with E. coli (ATCC 25922) (Escherichia coli, ATCC25922), over 1000 µg/mL; in data set [2] (setting [14]), over 1000 µg/mL; in data set [7] (setting [15]), over 1000 µg/mL; in the data set with B. cereus (ATCC 10876) (Bacillus cereus, ATCC10876), over 1000 µg/mL. Besides, in data set [11], the antibacterial activity result is “inactive”.

As to `CCCCCCCCCCCCCCCCCC#CC(=O)O` [Compound 2-ICA, 2-icosanoic acid], the MIC (in the data set with S. aureus (ATCC 29213) (setting [17]); in [1] (setting [18]); with E. coli (ATCC 25922) (setting [19]); in [2] (setting [20]); in [7] (setting [21]); against B. cereus (ATCC 10876) (setting [22])) was >1,000 μg/mL in each case. Moreover, in [11], the antibacterial activity entry is “did not show antibacterial activity”.
